Source: ChEMBL document CHEMBL5338752, “Carbamate JNK3 Inhibitors Show Promise as Effective Treatments for Alzheimer's Disease: In Vivo Studies on Mouse Models” (J Med Chem, 2023)
pIC50: −log10 of the molar value. Active and inactive are the calls of the source. The rule behind the calls is not given here.

Tests used:
Mus musculus [1] = experiment: Anti-alzheimer activity against triple transgenic mouse alzheimer disease model assessed as time spent in target zone at 60 mg/kg, po administered daily for 2.2 months and measured after 137 days by Morris water maze test (reference value: 4.48+/-1.63 sec); format: functional; details: time 137 day
[2] = target: Mitogen-activated protein kinase 14 (Homo sapiens) (UniProt Q16539); experiment: Inhibition of p38alpha (unknown origin) at 1.0 uM preincubated for 20 mins followed by 33P-ATP addition and measured after 2 hrs by P81 filter binding method relative to control; details: time 140.0 min
Mitogen-activated protein kinase 14 (Homo sapiens), sequence (Q16539 whole entry): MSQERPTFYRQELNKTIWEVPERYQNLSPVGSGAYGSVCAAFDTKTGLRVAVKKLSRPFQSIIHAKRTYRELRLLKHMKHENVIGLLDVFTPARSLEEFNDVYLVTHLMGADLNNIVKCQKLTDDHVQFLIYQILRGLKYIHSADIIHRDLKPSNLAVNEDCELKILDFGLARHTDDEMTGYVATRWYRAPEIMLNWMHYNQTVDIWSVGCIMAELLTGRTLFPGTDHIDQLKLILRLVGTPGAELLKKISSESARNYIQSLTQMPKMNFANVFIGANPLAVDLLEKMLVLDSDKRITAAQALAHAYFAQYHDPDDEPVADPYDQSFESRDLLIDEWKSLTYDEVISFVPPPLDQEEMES

Mus musculus [3] = experiment: Anti-alzheimer activity against triple transgenic mouse alzheimer disease model assessed as reduction in tau phosphorylation level at T181 residue in hippocampal tissue at 30 to 60 mg/kg by Western blot analysis; format: functional, organism-based; details: dose 30-60 mg/kg
[4] = Apparent permeability of the compound across basolateral side to apical side in human Caco-2 cells; format: ADME, cell-based
[5] = Effective permeability of compound by […] method; format: ADME; details: read-out: Peff
[6] = target: Mitogen-activated protein kinase 10 (Homo sapiens, UniProt P53779); experiment: Inhibition of JNK3 (unknown origin) at 1.0 uM preincubated for 20 mins followed by 33P-ATP addition and measured after 2 hrs by P81 filter binding method relative to control; details: time 140.0 min
Mitogen-activated protein kinase 10, sequence (P53779 whole entry): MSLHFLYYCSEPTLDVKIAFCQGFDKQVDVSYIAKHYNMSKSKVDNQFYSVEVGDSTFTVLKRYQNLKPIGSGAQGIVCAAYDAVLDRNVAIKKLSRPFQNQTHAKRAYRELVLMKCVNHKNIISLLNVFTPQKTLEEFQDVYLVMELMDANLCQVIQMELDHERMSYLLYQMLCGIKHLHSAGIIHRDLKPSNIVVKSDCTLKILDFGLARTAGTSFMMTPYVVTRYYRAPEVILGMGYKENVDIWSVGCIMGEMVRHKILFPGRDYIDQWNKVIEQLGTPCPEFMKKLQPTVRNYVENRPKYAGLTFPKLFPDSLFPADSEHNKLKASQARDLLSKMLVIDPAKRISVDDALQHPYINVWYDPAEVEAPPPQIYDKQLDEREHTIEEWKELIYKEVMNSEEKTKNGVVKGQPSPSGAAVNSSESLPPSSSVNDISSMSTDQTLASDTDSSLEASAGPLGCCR

Neuron [7] = experiment: Inhibition of apoptosis in rat cortex neuron cells assessed as prevention of A-beta (1 to 42) induced cleaved PARP formation at 10 to 20 uM measured after 24 hrs by Western blot analysis; format: functional, cell-based; details: dose 10-20 µM
Neuron [8] = experiment: Inhibition of apoptosis in rat cortex neuron cells assessed as prevention of A-beta (1 to 42) induced cleaved caspase-3 formation at 10 to 20 uM measured after 24 hrs by Western blot analysis; format: functional, cell-based; details: dose 10-20 µM
Mus musculus [9] = experiment: Anti-alzheimer activity against APP/PS1 dE9 double transgenic mouse model assessed as time spent in target zone at 30 mg/kg, po administered daily for 2 months and measured after 74 days by Morris water maze test (reference value: 6.76+/-3.20 sec); format: functional; details: time 74 day
Mus musculus [10] = experiment: Anti-alzheimer activity against triple transgenic mouse alzheimer disease model assessed as escape latency time at 60 mg/kg, po measured upto 5 days by Morris water maze test (reference value: 58.62+/-1.15 sec); format: functional; details: time <= 5 day
Mus musculus [11] = experiment: Anti-alzheimer activity against triple transgenic mouse alzheimer disease model assessed as spontaneous alteration at 30 mg/kg, po administered daily for 2.2 months and measured after 119 days by Y-maze test (reference value: 45.55+/-2.30%); format: functional; details: time 119 day
Mus musculus [12] = experiment: Anti-alzheimer activity against APP/PS1 dE9 double transgenic mouse model assessed as spontaneous alteration at 60 mg/kg, po administered daily for 2 months and measured after 57 days by Y-maze test (reference value: 40.75+/-2.25%); format: functional; details: time 57 day
Mus musculus [13] = experiment: Anti-alzheimer activity against triple transgenic mouse alzheimer disease model assessed as latency time at 30 mg/kg, po administered daily for 2.2 months and measured after 122 to 123 days by passive avoidance test (reference value: 31.3+/-6.9 sec); format: functional; details: time 122-123 day
Mus musculus [14] = experiment: Anti-alzheimer activity against APP/PS1 dE9 double transgenic mouse model assessed as escape latency time at 60 mg/kg, po administered daily for 2 months and measured after 60 days by Passive avoidance test (reference value: 28.6+/-4.3 sec); format: functional; details: time 60 day
Mus musculus [15] = experiment: Anti-alzheimer activity against triple transgenic mouse alzheimer disease model assessed as latency time at 60 mg/kg, po administered daily for 2.2 months and measured after 122 to 123 days by passive avoidance test (reference value: 31.3+/-6.9 sec); format: functional; details: time 122-123 day
Neuron [16] = experiment: Inhibition of anisomycin induced JNK activation in rat cortex neuron cells assessed as fold reduction in Jun phosphorylation levels at 10 to 20 uM preincubated for 90 mins followed by anisomycin addition and measured after 40 mins by Western blot analysis; format: cell-based; details: dose 10-20 µM, time 130.0 min
Mus musculus [17] = experiment: Anti-alzheimer activity against APP/PS1 dE9 double transgenic mouse model assessed as spontaneous alteration at 30 mg/kg, po administered daily for 2 months and measured after 57 days by Y-maze test (reference value: 40.75+/-2.25%); format: functional; details: time 57 day
Mus musculus [18] = experiment: Anti-alzheimer activity against triple transgenic mouse alzheimer disease model assessed as reduction in tau phosphorylation level at S202 residue in hippocampal tissue at 30 to 60 mg/kg by Western blot analysis; format: functional, organism-based; details: dose 30-60 mg/kg
Mus musculus [19] = experiment: Anti-alzheimer activity against APP/PS1 dE9 double transgenic mouse model assessed as escape latency time at 30 mg/kg, po administered daily for 2 months and measured after 60 days by Passive avoidance test (reference value: 28.6+/-4.3 sec); format: functional; details: time 60 day
Mus musculus [20] = experiment: Anti-alzheimer activity against APP/PS1 dE9 double transgenic mouse model assessed as time spent in platform quadrant at 60 mg/kg, po administered daily for 2 months and measured after 74 days by Morris water maze test (reference value: 10.50+/-4.15 sec); format: functional; details: time 74 day
Mus musculus [21] = experiment: Anti-alzheimer activity against APP/PS1 dE9 double transgenic mouse model assessed as time spent in target zone at 60 mg/kg, po administered daily for 2 months and measured after 74 days by Morris water maze test (reference value: 6.76+/-3.20 sec); format: functional; details: time 74 day
[22] = Tmax in sixteen hrs fasted Sprague-Dawley rat at 3 mg/kg, po measured upto 24 hrs by LC-MS/MS analysis; format: ADME, organism-based; details: in vivo
[23] = target: Mitogen-activated protein kinase 8 (Homo sapiens, UniProt P45983); experiment: Inhibition of JNK1 (unknown origin) using ATF2 as substrate incubated for 40 mins in presence of [gamma33P]ATP by scintillation counting analysis
Mitogen-activated protein kinase 8, sequence (P45983 whole entry): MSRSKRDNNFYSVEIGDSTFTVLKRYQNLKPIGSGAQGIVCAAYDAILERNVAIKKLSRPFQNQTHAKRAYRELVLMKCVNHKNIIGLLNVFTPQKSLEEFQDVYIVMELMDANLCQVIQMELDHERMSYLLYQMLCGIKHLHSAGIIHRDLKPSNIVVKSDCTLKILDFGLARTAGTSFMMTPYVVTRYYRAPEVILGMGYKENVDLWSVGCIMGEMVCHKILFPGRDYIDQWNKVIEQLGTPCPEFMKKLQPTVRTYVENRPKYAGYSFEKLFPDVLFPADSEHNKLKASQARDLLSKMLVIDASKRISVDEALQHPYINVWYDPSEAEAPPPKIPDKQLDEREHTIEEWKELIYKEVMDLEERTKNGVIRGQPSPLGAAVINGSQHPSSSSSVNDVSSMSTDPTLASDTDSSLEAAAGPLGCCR

Mus musculus [24] = experiment: Anti-alzheimer activity against APP/PS1 dE9 double transgenic mouse model assessed as time spent in platform quadrant at 30 mg/kg, po administered daily for 2 months and measured after 74 days by Morris water maze test (reference value: 10.50+/-4.15 sec); format: functional; details: time 74 day
[25] = target: Mitogen-activated protein kinase 9 (Homo sapiens, UniProt P45984); experiment: Inhibition of JNK2 (unknown origin) at 1.0 uM preincubated for 20 mins followed by 33P-ATP addition and measured after 2 hrs by P81 filter binding method relative to control; details: time 140.0 min
Mitogen-activated protein kinase 9, sequence (P45984 whole entry, looked up): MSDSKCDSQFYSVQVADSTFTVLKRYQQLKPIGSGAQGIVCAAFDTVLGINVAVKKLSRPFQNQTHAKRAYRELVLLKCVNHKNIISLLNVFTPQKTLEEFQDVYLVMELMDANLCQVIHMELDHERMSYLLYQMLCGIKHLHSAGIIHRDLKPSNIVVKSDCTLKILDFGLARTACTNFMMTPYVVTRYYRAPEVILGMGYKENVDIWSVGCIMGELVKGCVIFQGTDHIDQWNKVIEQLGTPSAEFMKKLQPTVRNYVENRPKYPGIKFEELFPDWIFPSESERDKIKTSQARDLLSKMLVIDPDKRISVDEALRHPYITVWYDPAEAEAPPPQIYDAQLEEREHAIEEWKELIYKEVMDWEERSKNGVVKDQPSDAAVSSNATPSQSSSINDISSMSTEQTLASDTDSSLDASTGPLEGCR

[26] = Efflux ratio of apparent permeability across basolateral to apical side to apical to basolateral side in human Caco-2 cells; format: ADME, cell-based
[27] = target: Mitogen-activated protein kinase 10 (Rattus norvegicus) (UniProt P49187); experiment: Inhibition of A-beta (1 to 42) induced JNK3 activation in rat cortex neuron cells assessed as reduction in c-Jun phosphorylation levels at 10 to 20 uM incubated for 24 hrs in presence of A-beta (1 to 42) by Western blot analysis; format: cell-based; details: dose 10-20 µM
Mitogen-activated protein kinase 10 (Rattus norvegicus), sequence (P49187 whole entry): as the sequence (P53779 whole entry) above, with Q27H, Y32S, I33V, A34V counted along it

Mus musculus [28] = experiment: Anti-alzheimer activity against triple transgenic mouse alzheimer disease model assessed as time spent in target zone at 30 mg/kg, po administered daily for 2.2 months and measured after 137 days by Morris water maze test (reference value: 4.48+/-1.63 sec); format: functional; details: time 137 day
Neuron [29] = experiment: Neuroprotective activity against rat neuron cells assessed as inhibition of Abeta(1-42)-induced cytotoxicity by measuring increase in cell viability at 20 uM incubated for 48 hrs by MTT assay relative to control; format: functional
Mus musculus [30] = experiment: Anti-alzheimer activity against triple transgenic mouse alzheimer disease model assessed as path length at 30 mg/kg, po measured upto 5 days by Morris water maze test (reference value: 608.85+/-39.27 cm); format: functional; details: time <= 5 day

## CNC(=O)Oc1cc(F)c2nc(-c3ccc4ccccc4c3)n(-c3ccnc(N[C@H]4CCCN(C(=O)C5CC5)C4)n3)c2c1
Mus musculus [1]
  Time: 16.28 s
[2]
  inhibition: 20%
Mus musculus [3]
  Activity: Active
[4]
  Papp B→A: 25.2 ×10⁻⁶ cm/s
[5]
  Papp: 55.8 ×10⁻⁶ cm/s
[6]
  inhibition: 100%
Neuron [7]
  inhibition: Active
Neuron [8]
  inhibition: Active
Mus musculus [9]
  Time: 11.4 s
Mus musculus [10]
  Time: 25.72 s
Mus musculus [11]
  Activity: 49.78%
Mus musculus [12]
  Activity: 54.23%
Mus musculus [13]
  Time: 31.6 s
Mus musculus [14]
  Time: 46.5 s
Mus musculus [15]
  Time: 64.4 s
Neuron [16]
  fold change (FC): 2
Mus musculus [17]
  Activity: 50.6%
Mus musculus [18]
  Activity: Active
Mus musculus [19]
  Time: 44.2 s
Mus musculus [20]
  Time: 21.78 s
Mus musculus [21]
  Time: 16.27 s
[22]
  Tmax: 23.4 min
[23]
  pIC50: < 5.00
Mus musculus [24]
  Time: 16.44 s
[25]
  inhibition: 20%
[26]
  efflux ratio: 14.7
[27]
  inhibition: Active
Mus musculus [28]
  Time: 17.1 s
Neuron [29]
  Activity: 28.4%
Mus musculus [30]
  Activity: 402.59 cm
